From patent US20100285959A1, “HERBICIDAL MIXTURES” (priority 2006, published 2010)

Experiments:
common purslane (POROL) = assay: Test 12 field trial, preemergence; format: in vivo, Portulaca oleracea; conditions: Cpd 2 or Cpd 1 62 g a.i./ha, Diuron 2000 g a.i./ha
From the text: (§1) In early-mid spring season, corn seeds (hybrid ‘Pioneer 3041’) were planted 5 cm deep and sugarcane nodes (variety RB-72.454) were planted 10 cm deep in separate plots in a clay soil having 2.6% organic matter and a pH of 5.6. Plots were 24 m long by 1.5 m wide with rows spaced 80 cm (corn) or 140 cm (sugarcane) apart. Corn seeds were spaced 15 cm apart and sugarcane nodes were spaced 10 cm apart within the rows. At the same time, weed seeds were broadcast over the surface of separate plots without a crop, one weed species per plot. The weed plots were rotary tilled to incorporate the weed seeds to a variety of depths. The field was managed using conventional tillage practices.

wild poinsettia (EPHHL) = assay: Test 12 field trial, preemergence; format: in vivo, Euphorbia heterophylla; set-up: scale not given here; conditions: Cpd 2 or Cpd 1 62 g a.i./ha, Diuron 2000 g a.i./ha
From the text: as §1

[1] = tested on: Ipomoea grandiflora (IPOGF); assay: Test 12 field trial, preemergence; format: in vivo; set-up: scale not given here; conditions: Cpd 2 or Cpd 1 62 g a.i./ha, Diuron 2000 g a.i./ha
From the text: as §1

wild spikenard (HPYSU) = assay: Test 12 field trial, preemergence; format: in vivo; set-up: scale not given here; conditions: Cpd 2 or Cpd 1 62 g a.i./ha, Diuron 2000 g a.i./ha
From the text: as §1

field violet (VIOAR) = assay: Test 21 growth chamber, postemergence; format: in vivo, Viola arvensis; conditions: 19 DAA; Cpd 2 alone 16 g a.i./ha
Method: (§2) A test was conducted to evaluate the effects on winter barley (HORVW, Hordeum vulgare L.), winter wheat (TRZAW, Triticum aestivum L.), and several weed species, of mixtures of Compound 2 with the commercial herbicide (2,4-dichlorophenoxy)acetic acid (2,4-D), an auxin mimic. […] Plants were treated postemergence at the 2-4 leaf growth stage, and each treatment was replicated one time. […] Plants were watered as needed. […] Results are from single replicates.

winter wheat (TRZAW) = assay: Test 20 growth chamber, postemergence; format: in vivo, Triticum aestivum; conditions: 25 DAA
Method: A test was conducted to evaluate the effects on winter barley (HORVW, Hordeum vulgare L.) and winter wheat (TRZAW, Triticum aestivum L.) of mixtures of Compound 2 with the commercial herbicides (2,4-dichlorophenoxy)acetic acid (2,4-D) and (4-chloro-2-methylphenoxy)acetic acid (MCPA), auxin mimics. […] Plants were treated postemergence at the 2-leaf growth stage, and each treatment was replicated a total of four times (three times in the loam/sand blend and one time in RediEarth). […] Plants were watered as needed. […] Results are the means of the four replicates.

shepherd's purse (CAPBP) = assay: Test 9 field trial, emerged weeds before corn planting; format: in vivo, Capsella bursa-pastoris; conditions: g a.i./ha: Cpd 2 100, Glyphosate 1540, Paraquat 1150
Method: (§3) Corn seeds (hybrid ‘Pioneer 34M91 RR’) were planted in mid spring season, about 3.8 cm deep in a silty clay loam soil having a pH of 6.7. Plots were 9.1 m long by 3.0 m. The field was managed using no-till practices. […] Compound 2 and paraquat treatments, alone and in combination, also included a surfactant. Glyphosate, alone and with Compound 2, included ammonium sulfate in the treatment mixture. […] The effects on the weeds in the treated plots and untreated control plots were recorded 7, 14, 23, 30 and 57 days after application. Most of the weed species could not be evaluated at every timing. Corn response was only evaluated 57 days after application. […] Results are the means of the three replicates.

giant ragweed (AMBTR) = assay: as above; format: in vivo, Ambrosia trifida; conditions: g a.i./ha: Cpd 2 100, Glyphosate 1540, Paraquat 1150
Method: as §3

common ragweed (AMBEL) = assay: Test 2 field trial, preemergence; format: in vivo, Ambrosia artemisiifolia; set-up: scale not given here
From the text: Corn seeds (hybrid ‘Pioneer 31G96’) were planted in mid spring season, 3.8 cm deep in a clay loam soil having 2% organic matter and a pH of 6.6. Plots were 6.1 m long by 3.0 m wide with rows spaced 76 cm apart. Seeds were spaced 15 cm apart within the rows. The field was managed using conventional tillage practices. […] A few of the weed species could not be evaluated at every timing. […] Results are the means of the three replicates.

wild mustard (SINAR) = assay: Test 21 growth chamber, postemergence; format: in vivo, Sinapis arvensis; conditions: 19 DAA; Cpd 2 alone 16 g a.i./ha
Method: as §2

wild buckwheat (POLCO) = assay: Test 21 growth chamber, postemergence; format: in vivo, Polygonum convolvulus; conditions: 19 DAA; Cpd 2 alone 16 g a.i./ha
Method: as §2

common chickweed (STEME) = assay: Test 21 growth chamber, postemergence; format: in vivo, Stellaria media; conditions: 19 DAA; Cpd 2 alone 16 g a.i./ha
Method: as §2

Russian thistle (SASKR) = assay: Test 22 growth chamber, postemergence; format: in vivo, Salsola kali; conditions: 25 DAA
Method: A test was conducted to evaluate the effects on winter barley (HORVW, Hordeum vulgare L.), winter wheat (TRZAW, Triticum aestivum L.), and several weed species of mixtures of Compound 2 with the commercial herbicides (2,4-dichlorophenoxy)acetic acid (2,4-D) and (4-chloro-2-methylphenoxy)acetic acid (MCPA), auxin mimics. […] Plants were treated postemergence at the 2-4 leaf growth stage, except KCHSC, SASKR and STEME which were in the 4-8 leaf growth stage. Each treatment was replicated one time. […] Plants were watered as needed. […] Results are from single replicates.

common dandelion (TAROF) = assay: Test 9 field trial, emerged weeds before corn planting; format: in vivo, Taraxacum officinale; conditions: g a.i./ha: Cpd 2 100, Glyphosate 1540, Paraquat 1150
Method: as §3

## Nc1nc(C2CC2)nc(C(=O)O)c1Cl [Compound 1, 6-amino-5-chloro-2-cyclopropyl-4-pyrimidinecarboxylic acid]
Common purslane (POROL); 15 DAA
  POROL Obs: 90
Common purslane (POROL); 29 DAA
  POROL Obs: 97
Common purslane (POROL); 48 DAA
  POROL Obs: 100
Common purslane (POROL); 61 DAA
  POROL Obs: 100
Wild poinsettia (EPHHL); 15 DAA
  EPHHL Obs: 40
Wild poinsettia (EPHHL); 29 DAA
  EPHHL Obs: 70
Wild poinsettia (EPHHL); 48 DAA
  EPHHL Obs: 50
Wild poinsettia (EPHHL); 61 DAA
  EPHHL Obs: 40
[1]; 15 DAA
  IPOGF Obs: 60
[1]; 29 DAA
  IPOGF Obs: 70
[1]; 48 DAA
  IPOGF Obs: 60
[1]; 61 DAA
  IPOGF Obs: 40
Wild spikenard (HPYSU); 15 DAA
  HPYSU Obs: 60
Wild spikenard (HPYSU); 29 DAA
  HPYSU Obs: 60
Wild spikenard (HPYSU); 48 DAA
  HPYSU Obs: 70
Wild spikenard (HPYSU); 61 DAA
  HPYSU Obs: 50

## COC(=O)c1nc(C2CC2)nc(N)c1Cl [Compound 2, methyl 6-amino-5-chloro-2-cyclopropyl-4-pyrimidinecarboxylate]
Field violet (VIOAR)
  Postemergence VIOAR Obs: 60
Common purslane (POROL); 15 DAA
  POROL Obs: 60
Common purslane (POROL); 29 DAA
  POROL Obs: 75
Common purslane (POROL); 48 DAA
  POROL Obs: 90
Common purslane (POROL); 61 DAA
  POROL Obs: 90
Winter wheat (TRZAW); Cpd 2 alone 4 g a.i./ha
  Postemergence TRZAW Obs: 23
Winter wheat (TRZAW); Cpd 2 alone 8 g a.i./ha
  Postemergence TRZAW Obs: 28
Winter wheat (TRZAW); Cpd 2 alone 16 g a.i./ha
  Postemergence TRZAW Obs: 35
shepherd's purse (CAPBP); 7 DAA
  CAPBP Obs: 23%
shepherd's purse (CAPBP); 14 DAA
  CAPBP Obs: 17%
shepherd's purse (CAPBP); 23 DAA
  CAPBP Obs: 7%
shepherd's purse (CAPBP); 30 DAA
  CAPBP Obs: 0%
shepherd's purse (CAPBP); 57 DAA
  CAPBP Obs: 0%
Giant ragweed (AMBTR); 7 DAA
  AMBTR Obs: 85%
Giant ragweed (AMBTR); 14 DAA
  AMBTR Obs: 83%
Giant ragweed (AMBTR); 57 DAA
  AMBTR Obs: 89%
Common ragweed (AMBEL); 18 DAA, g a.i./ha: Cpd 2 25, Atrazine 250
  AMBEL Obs: 18
Common ragweed (AMBEL); 18 DAA, g a.i./ha: Cpd 2 50, Atrazine 500
  AMBEL Obs: 27
Common ragweed (AMBEL); 18 DAA, g a.i./ha: Cpd 2 75, Atrazine 750
  AMBEL Obs: 53
Common ragweed (AMBEL); 18 DAA, g a.i./ha: Cpd 2 100, Atrazine 1000
  AMBEL Obs: 70
Common ragweed (AMBEL); 18 DAA, g a.i./ha: Cpd 2 150, Atrazine 1500
  AMBEL Obs: 70
Common ragweed (AMBEL); 28 DAA, g a.i./ha: Cpd 2 25, Atrazine 250
  AMBEL Obs: 10
Common ragweed (AMBEL); 28 DAA, g a.i./ha: Cpd 2 50, Atrazine 500
  AMBEL Obs: 48
Common ragweed (AMBEL); 28 DAA, g a.i./ha: Cpd 2 75, Atrazine 750
  AMBEL Obs: 70
Common ragweed (AMBEL); 28 DAA, g a.i./ha: Cpd 2 100, Atrazine 1000
  AMBEL Obs: 88
Common ragweed (AMBEL); 28 DAA, g a.i./ha: Cpd 2 150, Atrazine 1500
  AMBEL Obs: 97
Common ragweed (AMBEL); 55 DAA, g a.i./ha: Cpd 2 25, Atrazine 250
  AMBEL Obs: 10
Common ragweed (AMBEL); 55 DAA, g a.i./ha: Cpd 2 50, Atrazine 500
  AMBEL Obs: 33
Common ragweed (AMBEL); 55 DAA, g a.i./ha: Cpd 2 75, Atrazine 750
  AMBEL Obs: 42
Common ragweed (AMBEL); 55 DAA, g a.i./ha: Cpd 2 100, Atrazine 1000
  AMBEL Obs: 77
Common ragweed (AMBEL); 55 DAA, g a.i./ha: Cpd 2 150, Atrazine 1500
  AMBEL Obs: 93
Wild mustard (SINAR)
  Postemergence SINAR Obs: 65
Wild poinsettia (EPHHL); 15 DAA
  EPHHL Obs: 40
Wild poinsettia (EPHHL); 29 DAA
  EPHHL Obs: 60
Wild poinsettia (EPHHL); 48 DAA
  EPHHL Obs: 40
Wild poinsettia (EPHHL); 61 DAA
  EPHHL Obs: 40
[1]; 15 DAA
  IPOGF Obs: 50
[1]; 29 DAA
  IPOGF Obs: 60
[1]; 48 DAA
  IPOGF Obs: 40
[1]; 61 DAA
  IPOGF Obs: 40
Wild spikenard (HPYSU); 15 DAA
  HPYSU Obs: 60
Wild spikenard (HPYSU); 29 DAA
  HPYSU Obs: 60
Wild spikenard (HPYSU); 48 DAA
  HPYSU Obs: 50
Wild spikenard (HPYSU); 61 DAA
  HPYSU Obs: 40
Wild buckwheat (POLCO)
  Postemergence POLCO Obs: 70
Common chickweed (STEME)
  Postemergence STEME Obs: 65
Russian thistle (SASKR); Cpd 2 alone 4 g a.i./ha
  Postemergence SASKR Obs: 50
Russian thistle (SASKR); Cpd 2 alone 8 g a.i./ha
  Postemergence SASKR Obs: 50
Russian thistle (SASKR); Cpd 2 alone 16 g a.i./ha
  Postemergence SASKR Obs: 55
Common dandelion (TAROF); 7 DAA
  TAROF Obs: 37%
Common dandelion (TAROF); 14 DAA
  TAROF Obs: 38%
Common dandelion (TAROF); 23 DAA
  TAROF Obs: 60%
Common dandelion (TAROF); 30 DAA
  TAROF Obs: 65%
Common dandelion (TAROF); 57 DAA
  TAROF Obs: 84%

## O=C(O)CNCP(=O)(O)O [Glyphosate]
shepherd's purse (CAPBP); 7 DAA
  CAPBP Obs: 52%
shepherd's purse (CAPBP); 14 DAA
  CAPBP Obs: 73%
shepherd's purse (CAPBP); 23 DAA
  CAPBP Obs: 88%
shepherd's purse (CAPBP); 30 DAA
  CAPBP Obs: 98%
shepherd's purse (CAPBP); 57 DAA
  CAPBP Obs: 100%
Giant ragweed (AMBTR); 7 DAA
  AMBTR Obs: 25%
Giant ragweed (AMBTR); 14 DAA
  AMBTR Obs: 77%
Giant ragweed (AMBTR); 57 DAA
  AMBTR Obs: 85%
Common dandelion (TAROF); 7 DAA
  TAROF Obs: 37%
Common dandelion (TAROF); 14 DAA
  TAROF Obs: 62%
Common dandelion (TAROF); 23 DAA
  TAROF Obs: 83%
Common dandelion (TAROF); 30 DAA
  TAROF Obs: 90%
Common dandelion (TAROF); 57 DAA
  TAROF Obs: 88%
